The conditions of series [1]: Liquid; for mass density: 293.15 K, 101.33 kPa.
Series [2] in a line: refractive index (Na D-line) (dimensionless). The conditions noted are these: 293.15 K; 101.33 kPa; Liquid; Standard Abbe refractometry.

± gives the expanded uncertainty stated by the source.

In the NIST ThermoML archive (doi:10.1016/j.jct.2004.09.022) one finds mass density, Normal boiling temperature and refractive index data, which are given here for two compounds.

Broadly, the mass density is the mass of a sample divided by its volume. Broadly, the refractive index is the speed of light in vacuum divided by its phase velocity in the sample. Take `CC(C)CCO` [3-methylbutan-1-ol]: the mass density in series [1] (Vibrating tube method) turned out to be 808.4 ± 2.2 kg/m3. In series [1] (Fisher boiling point apparatus), the Normal boiling temperature stood at 131.40 ± 0.2 °C. For the same compound, in series [2], the refractive index is listed as 1.4075 ± 0.0008.
As to `O` [water], in series [1], the mass density was 999.9 ± 0.6 kg/m3 and the Normal boiling temperature turned out to be 100.1 ± 0.2 °C. For the same compound, in series [2], the refractive index was 1.3324 ± 0.0008.
